Test results: patent US8318812B2, “Therapeutic agents for the treatment of lymphoid malignancies” (The Ohio State University Research Foundation, priority 2006, dated 2012)

System: 697-neo and 697-Bcl-2 cell lines
Test: Annexin V/PI viability in 697-neo and 697-Bcl-2 cells
Assay type: cell-based, Human
Conditions: 24 hours
Description: Cells: Blood was obtained from patients with B-cell CLL with informed consent under a protocol approved by the hospital internal review board. All patients examined in this series had immunophenotypically defined CLL as outlined by the modified 96 National Cancer Institute criteria. B-CLL cells were isolated from freshly donated blood using ficoll density gradient centrifugation (Ficoll-Paque Plus, Amershan Biosciences, Piscataway, N.J.). Isolated mononuclear cells were incubated in RPMI 1640 media (Gibco/Invitrogen, Carlsbad, Calif.) supplemented with 10% heat-inactivated fetal bovine serum (FBS, Hyclone Laboratories, Logan, Utah), 2 mM L-glutamine (Invitrogen, Carlsbad, Calif.), and penicillin (100 U/mL)/streptomycin (100 μg/ml) [Sigma-Aldrich, St. Louis] at 37° C. in an atmosphere of 5% CO2. Freshly isolated B-CLL cells were used in all experiments described herein. […]
Analysis of cell viability and apoptosis: The cell viability was carried out by dual staining with Annexin V conjugated to flourescein-isothyocyanate (FITC) and Propidium iodide (PI) as described previously. Briefly, 1×10^6 cells were stained with Annexin V-FITC (BD Pharmingen) and Propidium iodide (BD Pharmingen) for 15 minutes in dark and analyzed by flow cytometry using a Beckman-Coulter EPICS XL cytometer (Beckman-Coulter, Miami, Fla.). […]

CCCCCCCCc1ccc(CCC(N)(CO)CO)cc1.Cl [FTY720, 2-Amino-2-[2-(4-octylphenyl)ethyl]propane 1,3-diol hydrochloride]
cellular cytotoxicity in 697-neo versus 697-Bcl-2 over expressing cell line: comparable levels of cellular cytotoxicity
